Results taken from US20100016379A1, “Terephthalamate Compounds and Compositions, and Their Use as HIV Integrase Inhibitors” (IRM LLC, priority 2006, published 2010).
Like-named read-outs stand apart in the source and are kept apart here.

Legend:
[1] = cytotoxicity assay (Screen 3); assay type: cell-based; conditions: human, HE 293T cells
Excerpt: Screen 3: A cytotoxicity assay, to determine inhibitory activity against HE 293T cells.

HIV-1 integrase = target: T1, HIV-1 integrase (Human immunodeficiency virus type 1 group M subtype B, UniProt P04585); assay: HIV-1 integrase strand transfer assay (Screen 2); assay type: biochemical
T1 construct: An HIV-1 integrase strand transfer assay
Excerpt: Screen 2: An HIV-1 integrase strand transfer assay, (see Wang et al, J. Biomol. Screen. (2005) 10: 456), that identifies anti-HIV activity due to inhibition of HIV integrase.

[2] = system: NNRTI resistant mutant L100I; assay: Inhibition of NNRTI resistant mutants, L100I; assay type: cell-based, HIV; conditions: Human immunodeficiency virus 1, read-out: Inhibition of NNRTI resistant mutants (EC50) L100I
Procedure: (§1) Select compounds are assayed against key NNRTI resistant mutants.

[3] = system: NNRTI resistant mutant Y188L; assay: Inhibition of NNRTI resistant mutants, Y188L; assay type: cell-based, HIV; conditions: Human immunodeficiency virus 1, read-out: Inhibition of NNRTI resistant mutants (EC50) Y188L
Procedure: as §1

[4] = system: NNRTI resistant mutant K103N; assay: Inhibition of NNRTI resistant mutants, K103N; assay type: cell-based, HIV; conditions: Human immunodeficiency virus 1, read-out: Inhibition of NNRTI resistant mutants (EC50) K103N
Procedure: as §1

HIV = assay: cell-based HIV luciferase reporter infection assay (Screen 1); conditions: for EC50: Human immunodeficiency virus 1, read-out: HIV Activity EC50
Procedure: HIV therapeutic agents inhibit propagation of HIV in cells, and as such cell-based assays of HIV antiviral activity have been developed. For example, Pauwels et al, Nature (1990) 343: 470-4 describe incubating HIV infected cells with test compounds and subsequently determining cell viability via colorimetric methods, to give an EC50 for the inhibition of HIV-1 replication.
Screen 1: A high throughput cell-based HIV luciferase reporter infection assay (see He et al, Bioorg. Med. Chem. Lett. (2006) 16) that identifies inhibitors of early HIV infection events. The results are shown in Table 2 below, expressed as EC50 (μM), the molar concentration that produces 50% of the maximal possible response.

WT = assay: Inhibition of NNRTI resistant mutants, WT; assay type: cell-based, HIV; conditions: Human immunodeficiency virus 1, read-out: Inhibition of NNRTI resistant mutants (EC50) WT
Procedure: as §1

[5] = system: NNRTI resistant mutant Y181C; assay: Inhibition of NNRTI resistant mutants, Y181C; assay type: cell-based, HIV; conditions: Human immunodeficiency virus 1, read-out: Inhibition of NNRTI resistant mutants (EC50) Y181C
Procedure: as §1

[6] = strand transfer assay, read-out: Integrase Activity IC50

SMILES	CC50 [1] [nM]	IC50 (HIV-1 integrase; [6]) [nM]	EC50 [2] [nM]	EC50 [3] [nM]	EC50 [4] [nM]	EC50 (HIV) [nM]	EC50 (WT) [nM]	EC50 [5] [nM]	IC50 (HIV-1 integrase) [nM]	activity in the enzymatic assay (HIV-1 integrase; result in words)	activity in the cellular assay (HIV; result in words)
COC(=O)c1ccc(C(=O)NCc2ccccn2)c(O)c1O [Compound 16, methyl 4-((pyridin-2-yl)methylcarbamoyl)-2,3-dihydroxybenzoate]	> 2000	50 to 500	50 to 500	50 to 500	50 to 500	50 to 500	50 to 500	50 to 500			
COC(=O)c1ccc(C(=O)NCc2ccccc2)c(O)c1O [Compound 1, methyl 4-(benzylcarbamoyl)-2,3-dihydroxybenzoate]	> 2000					50 to 500			50 to 500		
O=C(NCc1ccccc1)c1cccnc1O [Compound 6, N-benzyl-2-hydroxypyridine-3-carboxamide]	> 2000					> 2000					
COC(=O)c1ccc(C(=O)NCc2ccccc2[N+](=O)[O-])c(O)c1O [Compound 10, methyl 4-(2-nitrobenzylcarbamoyl)-2,3-dihydroxybenzoate]	500 to 2000	< 50	< 50	50 to 500	< 50	50 to 500	50 to 500	50 to 500			
COC(=O)c1ccc(C(=O)NCc2ccc([N+](=O)[O-])cc2)c(O)c1O [Compound 12, methyl 4-(4-nitrobenzylcarbamoyl)-2,3-dihydroxybenzoate]	500 to 2000	50 to 500				50 to 500					
COC(=O)c1ccc(C(=O)NCc2ccccc2OC)c(O)c1O [Compound 7, methyl 4-(2-methoxybenzylcarbamoyl)-2,3-dihydroxybenzoate]	500 to 2000	< 50	< 50	50 to 500	< 50	< 50	< 50	50 to 500			
COC(=O)c1ccc(C(=O)NCc2cccc([N+](=O)[O-])c2)c(O)c1O [Compound 11, methyl 4-(3-nitrobenzylcarbamoyl)-2,3-dihydroxybenzoate]	500 to 2000	< 50	< 50	< 50	< 50	< 50	< 50	50 to 500			
COC(=O)c1ccc(C(=O)NCc2cccc(C(F)(F)F)c2)c(O)c1O [Compound 14, methyl 4-(3-(trifluoromethyl)benzylcarbamoyl)-2,3-dihydroxybenzoate]	500 to 2000	50 to 500				500 to 2000					
O=C(NCc1ccccc1)c1ccccc1O [Compound 4, N-benzyl-2-hydroxybenzamide]	> 2000					> 2000					
O=C(NCc1ccccc1)c1cccc(O)c1 [Compound 3, N-benzyl-3-hydroxybenzamide]	> 2000					> 2000					
COC(=O)c1ccc2c(=O)n(Cc3ccccc3)c(=O)oc2c1O [Compound 21, 3-benzyl-8-hydroxy-2,4-dioxo-3,4-dihydro-2H-benzo[e][1,3]oxazine-7-carboxylic acid methyl ester]	> 2000		50 to 500	50 to 500	50 to 500	50 to 500	50 to 500	50 to 500	50 to 500	maintains activity	maintains activity
O=C(NCc1ccccc1)c1cccc(O)n1 [Compound 5, N-benzyl-6-hydroxypyridine-2-carboxamide]	> 2000					> 2000					
COC(=O)c1ccc(C(=O)NCc2ccc(OC)cc2)c(O)c1O [Compound 9, methyl 4-(4-methoxybenzylcarbamoyl)-2,3-dihydroxybenzoate]	> 2000	< 50				500 to 2000					
CC(C)Oc1ccc(Cc2ccccc2)cc1C(=O)CC(=O)C(=O)O [DKA, reference compound]	> 2000	50 to 500	50 to 500	50 to 500	< 50	50 to 500	50 to 500	50 to 500			
Cc1ccnc2c1NC(=O)c1cccnc1N2C1CC1 [NVP, Nevirapine, reference compound]	> 2000		50 to 500	> 2000	> 2000	50 to 500	50 to 500	> 2000			
COC(=O)c1ccc(C(=O)NCc2ccc(C(F)(F)F)cc2)c(O)c1O [Compound 15, methyl 4-(4-(trifluoromethyl)benzylcarbamoyl)-2,3-dihydroxybenzoate]	500 to 2000	500 to 2000				500 to 2000					
COC(=O)c1ccc(C(=O)NCc2ccncc2)c(O)c1O [Compound 18, methyl 4-((pyridin-4-yl)methylcarbamoyl)-2,3-dihydroxybenzoate]	> 2000	50 to 500				50 to 500					
O=C(NCc1ccccc1)c1cccc(O)c1O [Compound 2, N-benzyl-2,3-dihydroxybenzamide]	> 2000					> 2000					
COC(=O)c1ccc(C(=O)N(C)Cc2ccccc2)c(O)c1O [Compound 19, methyl 4-(N-benzyl-N-methylcarbamoyl)-2,3-dihydroxybenzoate]	> 2000	> 2000				> 2000					
COC(=O)c1ccc(C(=O)NCc2cccnc2)c(O)c1O [Compound 17, methyl 4-((pyridin-3-yl)methylcarbamoyl)-2,3-dihydroxybenzoate]	> 2000	50 to 500				50 to 500					
COC(=O)c1ccc(C(=O)Nc2ccccc2)c(O)c1O [Compound 20, methyl 4-(phenylcarbamoyl)-2,3-dihydroxybenzoate]	500 to 2000	< 50	< 50	< 50	< 50	< 50	< 50	< 50			
COC(=O)c1ccc(C(=O)NCc2ccccc2C(F)(F)F)c(O)c1O [Compound 13, methyl 4-(2-(trifluoromethyl)benzylcarbamoyl)-2,3-dihydroxybenzoate]	500 to 2000	50 to 500				50 to 500					
COC(=O)c1ccc(C(=O)NCc2cccc(OC)c2)c(O)c1O [Compound 8, methyl 4-(3-methoxybenzylcarbamoyl)-2,3-dihydroxybenzoate]	> 2000	< 50	50 to 500	50 to 500	50 to 500	50 to 500	50 to 500	50 to 500			
